Results on one compound are retold here after ChEMBL document CHEMBL5550100, “Discovery of LHF418 as a new potent SOS1 PROTAC degrader” (Bioorg Med Chem, 2024).

By DC50 is commonly meant the midpoint of the concentration-degradation curve. In general, Emax refers to the greatest response seen or fitted, relative to the assay's reference.

Test [1] addresses T1, Protein cereblon/Son of sevenless homolog 1 (Homo sapiens, UniProt Q07889+Q96SW2). Nature of the test: PROTAC activity at CRBN/SOS1 in human A549 cells assessed as protein degradation at 0.1 uM incubated for 24 hrs by immunoblot analysis relative to control. The test is classed as cell-based.
Test [2] has as its target T1, Protein cereblon/Son of sevenless homolog 1. The test is described as follows: PROTAC activity at CRBN/SOS1 in human A549 cells assessed as protein degradation at 3 uM incubated for 24 to 72 hrs by immunoblot analysis. The test is classed as cell-based. As to conditions: time 24-72 hrs.
For test [3] the target is unchanged. The test is described as follows: PROTAC activity at CRBN/SOS1 in bafilomycin-pretreated human A549 cells assessed as protein degradation at 1 uM incubated for 24 hrs by immunoblot analysis. The test is classed as cell-based. Background: In western blotting, separated proteins are transferred to a membrane and probed.
Test [4] concerns the target GTPase KRas (Homo sapiens) (UniProt P01116). Nature of the test: Inhibition of KRAS signalling in serum-starved human A549 cells assessed as decrease in ERK1/2 phosphorylation upto 10000 nM preincubated for 24 hrs followed by EGF stimulation for 1 hr by immunoblot analysis. In kind it is cell-based. As to conditions: time 25.0 hrs.
The target of test [5] is T1, Protein cereblon/Son of sevenless homolog 1. The test is described as follows: PROTAC activity at CRBN/SOS1 in MG-132-pretreated human A549 cells assessed as protein degradation at 1 uM incubated for 24 hrs by immunoblot analysis. The test is classed as cell-based.
For test [6] the target is unchanged. The test is described as follows: PROTAC activity at 6His-tagged human CRBN TBD domain (318 to 425 residues) expressed in Escherichia coli BL21(DE3)/GST-tagged recombinant human SOS1 (569 to 1049 residues) expressed in Escherichia coli BL21(DE3) protein-protein interaction assessed as ternary complex formation incubated for 1 hr by AlphaScreen assay. On the technique in general: Bead proximity is the source of the signal in Alpha formats.

Test [7] shares this target. The test is described as follows: PROTAC activity at CRBN/SOS1 in human A549 cells assessed as protein degradation at 3 uM by immunoblot analysis. The test is classed as cell-based. The note with it: time <= 72.0 hrs, TDE = time-dependent effect.
Test [8] shares this target. Nature of the test: PROTAC activity at CRBN/SOS1 in lenalidomide-pretreated human A549 cells assessed as protein degradation at 1 uM incubated for 24 hrs by immunoblot analysis. In kind it is cell-based.
A further test has as its system MIA PaCa-2. The test is described as follows: Inhibition of colony formation in human MIA PaCa-2 cells upto 30 uM incubated for 14 days by crystal violet staining based analysis. The test is classed as functional, cell-based. As to conditions: time 14.0 day.
The target of test [9] is T1, Protein cereblon/Son of sevenless homolog 1. The test is described as follows: PROTAC activity at CRBN/SOS1 in MLN-4924-pretreated human A549 cells assessed as protein degradation at 1 uM incubated for 24 hrs by immunoblot analysis. The test is classed as cell-based.
In test [10] the target is Protein cereblon/Son of sevenless homolog 1 (Homo sapiens, UniProt Q07889+Q96SW2, G12D). Nature of the test: PROTAC activity at CRBN/SOS1 in human HPAF-II cells harboring KRAS G12D mutant assessed as protein degradation by immunoblot analysis. The test is classed as cell-based.
The target of test [11] is T1, Protein cereblon/Son of sevenless homolog 1. Nature of the test: PROTAC activity at CRBN/SOS1 in human A549 cells assessed as protein degradation incubated for 24 hrs by immunoblot analysis. The test is classed as cell-based.
The target is the same in test [12]. The test is described as follows: PROTAC activity at CRBN/SOS1 in human A549 cells assessed as protein degradation upto 10000 nM incubated for 24 hrs by immunoblot analysis relative to control. In kind it is cell-based.
The target is the same in test [13]. Nature of the test: PROTAC activity at CRBN/SOS1 in human A549 cells assessed as protein degradation at 10 uM incubated for 24 hrs by immunoblot analysis relative to control. In kind it is cell-based.
The subject of test [14] is A549. The test is described as follows: Effect on SOS2 in human A549 cells upto 10000 nM incubated for 24 hrs by immunoblot analysis. The test is classed as functional, cell-based.
The target of test [15] is T1, Protein cereblon/Son of sevenless homolog 1. Nature of the test: PROTAC activity at CRBN/SOS1 in BI3406-pretreated human A549 cells assessed as protein degradation at 1 uM incubated for 24 hrs by immunoblot analysis. The test is classed as cell-based.
Test [16] has the same target. The test is described as follows: PROTAC activity at CRBN/SOS1 in human A549 cells assessed as half life of SOS1 at 3 uM by immunoblot analysis. The test is classed as cell-based.
Test [17] has as its target Protein cereblon/Son of sevenless homolog 1 (Homo sapiens, UniProt Q07889+Q96SW2, G12C). The test is described as follows: PROTAC activity at CRBN/SOS1 in human MIA PaCa-2 cells harboring KRAS G12C mutant assessed as protein degradation by immunoblot analysis. The test is classed as cell-based.
The target of test [18] is T1, Protein cereblon/Son of sevenless homolog 1. Nature of the test: PROTAC activity at CRBN/SOS1 in CHX-pretreated human A549 cells assessed as protein degradation at 3 uM incubated for 12 hrs by immunoblot analysis. In kind it is cell-based.
Test [19] relates to A549. The test is described as follows: Effect on GSPT1 in human A549 cells upto 10000 nM incubated for 24 hrs by immunoblot analysis. The test is classed as functional, cell-based.

Active and inactive are the calls of the source. The rule behind the calls is not given here.

With `COc1cc2nc(C)nc(N[C@H](C)c3cc(N)cc(C(F)(F)F)c3)c2cc1O[C@H]1CCN(C(=O)CCCCCCCC(=O)Nc2cccc3c2CN(C2CCC(=O)NC2=O)C3=O)C1` (stereo partly specified), the Activity is 68% in [1], “Tde” in [7], “Dose-Dependent Effect” in test [11] (dose <= 10000.0 µM) and 69% in test [13]. For the same compound, the result in test [2], in test [3], in [6] and in test [18] was Active. Besides, the inhibition entry (in test [4]; with MIA PaCa-2) was “Active” each time. The outcome (in test [5]; in test [8]; in test [9]; with A549 [14]; in test [15]; in the test on A549 [19]) was inactive. The DC50 in test [10] stood at 354 nM; in [11], 209 nM; in test [17] it was 540 nM. Besides, in test [12], the maximum response (Emax) is more than 80%. Besides, the T1/2 in test [16] was determined as 22.5 h.
